According to patent US20110098300A1, “Compounds Comprising A Cyclobutoxy Group” (UCB PHARMA, S.A., priority 2008, published 2011):

| Compound | melting point [°C] |
| --- | --- |
| O=C(c1ccc(O[C@H]2C[C@H](N3CCCCC3)C2)cc1)N1CCOCC1 [Compound 1, 4-{4-[(trans-3-piperidin-1-ylcyclobutyl)oxy]benzoyl}morpholine] | 135 to 136 |
| O=C(c1ccc(O[C@H]2C[C@H](N3CCCCC3)C2)cc1)N1CCC(F)(F)CC1 [Compound 2, 4,4-difluoro-1-{4-[(trans-3-piperidin-1-ylcyclobutyl)oxy]benzoyl}piperidine] | 145 to 146 |
| O=C(c1ccc(O[C@H]2C[C@H](N3CCCCC3)C2)cc1)N1CCCCC1 [Compound 3, 1-{trans-3-[4-(piperidin-1-ylcarbonyl)phenoxy]cyclobutyl}piperidine] | 101.1 to 102.2 |
| CC(C)N1CCN(C(=O)c2ccc(O[C@H]3C[C@H](N4CCCCC4)C3)cc2)CC1 [Compound 4, 1-isopropyl-4-{4-[(trans-3-piperidin-1-ylcyclobutyl)oxy]benzoyl}piperazine] | 98.5 to 99 |
| O=C(c1ccc(O[C@H]2C[C@H](N3CCCCC3)C2)cc1)N1CCC(O)CC1 [Compound 5, 1-{4-[(trans-3-piperidin-1-ylcyclobutyl)oxy]benzoyl}piperidin-4-ol] | 57.4 to 57.8 |
| O=C(c1ccc(O[C@H]2C[C@H](N3CCCCC3)C2)cc1)N1CCS(=O)(=O)CC1 [Compound 8, 4-{4-[(trans-3-piperidin-1-ylcyclobutyl)oxy]benzoyl}thiomorpholine 1,1-dioxide] | 186.5 to 186.9 |
| O=C(c1ccc(O[C@H]2C[C@H](N3CCCCC3)C2)cc1)N1CCC(F)(F)C1 [Compound 9, 1-(trans-3-{4-[(3,3-difluoropyrrolidin-1-yl)carbonyl]phenoxy}cyclobutyl)piperidine] | 115.2 to 115.8 |

Second part, the molecule after the results:

| melting point [°C] | Compound |
| --- | --- |
| 159.2 to 159.8 | CC(=O)N1CCN(C(=O)c2ccc(O[C@H]3C[C@H](N4CCCCC4)C3)cc2)CC1 [Compound 10, 1-acetyl-4-{4-[(trans-3-piperidin-1-ylcyclobutyl)oxy]benzoyl}piperazine] |
| 82.2 to 82.4 | O=C(c1ccc(O[C@H]2C[C@H](N3CCCCC3)C2)cc1)N1CC(O)C1 [Compound 11, 1-{4-[(trans-3-piperidin-1-ylcyclobutyl)oxy]benzoyl}azetidin-3-ol] |
| 151.6 | O=C(Nc1cnccc1Cl)c1ccc(O[C@H]2C[C@H](N3CCCCC3)C2)cc1 [Compound 12, N-(4-chloropyridin-3-yl)-4-[(trans-3-piperidin-1-ylcyclobutyl)oxy]benzamide] |
| 152.9 to 153.4 | O=C(NCC(F)(F)F)c1ccc(O[C@H]2C[C@H](N3CCCCC3)C2)cc1 [Compound 13, 4-[(trans-3-piperidin-1-ylcyclobutyl)oxy]-N-(2,2,2-trifluoroethyl)benzamide] |
